Source: US7605227B2, “Melanoma antigen peptide analogues” (MannKind Corporation, priority 2005, dated 2009)
Entries after “also recorded” stand apart in the source; their conditions may differ. Square brackets hold non-standard residues; d marks the D form. Ends that are not written are not given here. Peptide text beside a SMILES is read from it. Phe(4-F) = N[C@@H](Cc1ccc(F)cc1)C(=O)O

System: T cell lines against a natural (non-mutated) epitope (SSX-241-49)
Test: Cross-reactivity and functional avidity: IFN-gamma from T cell lines against natural SSX-2 41-49 epitope;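 note: peptide analogs tested ex vivo with competent APCs, IFN-gamma in supernatant measured by ELISA, readouts include minimal triggering concentration, peak effect and concentration at peak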
Type: cell-based, HHD transgenic mice
Conditions: for Cross-reactivity and fct avidity (native to analogs)*: IFN-gamma from T cell line raised against native SSX-2 41-49, native = 1, lower = more active

Row | Compound | Cross-reactivity and fct avidity (native to analogs)* | cross-reactivity / IFN-gamma inducing activity relative to wild-type, in words (SSX-2 41-49 analogs, wild-type specific T cells)
1 | CC[C@H](NC(=O)[C@@H](N)CCCCN)C(=O)N[C@@H](CO)C(=O)N[C@@H](CCC(=O)O)C(=O)N[C@@H](CCCCN)C(=O)N[C@H](C(=O)N[C@@H](Cc1ccccc1)C(=O)N[C@@H](Cc1ccc(O)cc1)C(=O)N[C@H](C(=O)O)C(C)C)[C@@H](C)CC [SSX2 41-49 (A42(Abu)), KAbuSEKIFYV] | 0.3 | –
2 | CC[C@H](C)[C@H](NC(=O)[C@H](CCCCN)NC(=O)[C@H](CCC(=O)O)NC(=O)[C@H](CO)NC(=O)C(C)(C)NC(=O)[C@@H](N)CCCCN)C(=O)N[C@@H](Cc1ccccc1)C(=O)N[C@@H](Cc1ccc(O)cc1)C(=O)N[C@H](C(=O)O)C(C)C [SSX2 41-49 (A42(Aib)), KAibSEKIFYV] | 3 | –
3 | CC[C@H](C)[C@H](NC(=O)[C@H](CCCCN)NC(=O)[C@H](CCC(=O)O)NC(=O)[C@H](CO)NC(=O)[C@H](Cc1ccc2ccccc2c1)NC(=O)[C@@H](N)CCCCN)C(=O)N[C@@H](Cc1ccccc1)C(=O)N[C@@H](Cc1ccc(O)cc1)C(=O)N[C@H](C(=O)O)C(C)C [SSX2 41-49 (A42(Nal-2)), KNal-2SEKIFYV] | 3 | –
4 | CCCC[C@H](NC(=O)[C@@H](N)CCCCN)C(=O)N[C@@H](CO)C(=O)N[C@@H](CCC(=O)O)C(=O)N[C@@H](CCCCN)C(=O)N[C@H](C(=O)N[C@@H](Cc1ccccc1)C(=O)N[C@@H](Cc1ccc(O)cc1)C(=O)N[C@H](C(=O)O)C(C)C)[C@@H](C)CC [SSX2 41-49 (A42(Nle)), KNleSEKIFYV] | 0.1 | –
5 | CCC[C@H](NC(=O)[C@@H](N)CCCCN)C(=O)N[C@@H](CO)C(=O)N[C@@H](CCC(=O)O)C(=O)N[C@@H](CCCCN)C(=O)N[C@H](C(=O)N[C@@H](Cc1ccccc1)C(=O)N[C@@H](Cc1ccc(O)cc1)C(=O)N[C@H](C(=O)O)C(C)C)[C@@H](C)CC [SSX2 41-49 (A42(Nva)), KNvaSEKIFYV] | 0.1 | –
6 | CC[C@H](C)[C@H](NC(=O)[C@H](CCCCN)NC(=O)[C@H](CCC(=O)O)NC(=O)[C@H](CO)NC(=O)[C@H](CC(C)C)NC(=O)[C@@H](N)CCCCN)C(=O)N[C@@H](Cc1ccccc1)C(=O)N[C@@H](Cc1ccc(O)cc1)C(=O)N[C@H](C(=O)O)C(C)C [SSX2 41-49 (A42L)] | 0.03 | –
7 | CC[C@H](C)[C@H](NC(=O)[C@H](CCCCN)NC(=O)[C@H](CCC(=O)O)NC(=O)[C@H](CO)NC(=O)[C@H](CC(C)C)NC(=O)[C@H](N)CCCCN)C(=O)N[C@@H](Cc1ccccc1)C(=O)N[C@@H](Cc1ccc(O)cc1)C(=O)N[C@H](C(=O)O)C(C)C [SSX2 41-49 (K41(D-Lys), A42L)] | 10 | –
8 | CC[C@H](C)[C@H](NC(=O)[C@H](CCCCN)NC(=O)[C@H](CCC(=O)O)NC(=O)[C@H](CO)NC(=O)[C@@H](NC(=O)[C@H](N)CCCCN)C(C)C)C(=O)N[C@@H](Cc1ccccc1)C(=O)N[C@@H](Cc1ccc(O)cc1)C(=O)N[C@H](C(=O)O)C(C)C [SSX2 41-49 (K41(D-Lys), A42V)] | 10 | –
9 | CC[C@H](C)[C@H](NC(=O)[C@H](CCCCN)NC(=O)[C@H](CCC(=O)O)NC(=O)[C@H](CO)NC(=O)[C@H](C)NC(=O)[C@@H](N)Cc1ccc(F)cc1)C(=O)N[C@@H](Cc1ccccc1)C(=O)N[C@@H](Cc1ccc(O)cc1)C(=O)N[C@H](C(=O)O)C(C)C [SSX2 41-49 (K41(Phe-4F))] (H-[Phe(4-F)]ASEKIFYV-OH) | 3 | –
10 | CC[C@H](C)[C@H](NC(=O)[C@H](CCCCN)NC(=O)[C@H](CCC(=O)O)NC(=O)[C@H](CO)NC(=O)[C@H](CC(C)C)NC(=O)[C@@H](N)Cc1ccccc1)C(=O)N[C@@H](Cc1ccccc1)C(=O)N[C@@H](Cc1ccc(O)cc1)C(=O)N[C@H](C(=O)O)C(C)C [SSX2 41-49 (K41F, A42L)] | 0.3 | –
11 | CC[C@H](C)[C@H](NC(=O)[C@H](CCCCN)NC(=O)[C@H](CCC(=O)O)NC(=O)[C@H](CO)NC(=O)[C@H](CCSC)NC(=O)[C@@H](N)Cc1ccccc1)C(=O)N[C@@H](Cc1ccccc1)C(=O)N[C@@H](Cc1ccc(O)cc1)C(=O)N[C@H](C(=O)O)C(C)C [SSX2 41-49 (K41F, A42M)] | 3 | –
12 | CC[C@H](C)[C@H](NC(=O)[C@H](CCCCN)NC(=O)[C@H](CO)NC(=O)[C@H](CO)NC(=O)[C@@H](NC(=O)[C@@H](N)Cc1ccccc1)C(C)C)C(=O)N[C@@H](Cc1ccccc1)C(=O)N[C@@H](Cc1ccc(O)cc1)C(=O)N[C@H](C(=O)O)C(C)C [SSX2 41-49 (K41F, A42V, E44S)] | >10 | –
13 | CC[C@H](C)[C@H](NC(=O)[C@H](CCCCN)NC(=O)[C@@H](NC(=O)[C@H](CO)NC(=O)[C@@H](NC(=O)[C@@H](N)Cc1ccccc1)C(C)C)[C@@H](C)O)C(=O)N[C@@H](Cc1ccccc1)C(=O)N[C@@H](Cc1ccc(O)cc1)C(=O)N[C@H](C(=O)O)C(C)C [SSX2 41-49 (K41F, A42V, E44T)] | >10 | –
14 | CC[C@H](C)[C@H](NC(=O)[C@H](CCCCN)NC(=O)[C@H](CCC(=O)O)NC(=O)[C@H](CO)NC(=O)[C@@H](NC(=O)[C@@H](N)Cc1ccccc1)C(C)C)C(=O)N[C@@H](Cc1ccccc1)C(=O)N[C@@H](Cc1ccc(O)cc1)C(=O)N[C@@H](C)C(=O)O [SSX2 41-49 (K41F, A42V, V49A)] | 1 | –
15 | CC[C@H](NC(=O)[C@H](Cc1ccc(O)cc1)NC(=O)[C@H](Cc1ccccc1)NC(=O)[C@@H](NC(=O)[C@H](CCCCN)NC(=O)[C@H](CCC(=O)O)NC(=O)[C@H](CO)NC(=O)[C@@H](NC(=O)[C@@H](N)Cc1ccccc1)C(C)C)[C@@H](C)CC)C(=O)O [SSX2 41-49 (K41F, A42V, V49Abu)] | 1 | –
16 | CC[C@H](C)[C@H](NC(=O)[C@H](CCCCN)NC(=O)[C@H](CCC(=O)O)NC(=O)[C@H](CO)NC(=O)[C@@H](NC(=O)[C@@H](N)Cc1ccccc1)C(C)C)C(=O)N[C@@H](Cc1ccccc1)C(=O)N[C@@H](Cc1ccc(O)cc1)C(=O)N[C@@H](CC(C)C)C(=O)O [SSX2 41-49 (K41F, A42V, V49L)] | >10 | –
17 | CC[C@H](C)[C@H](NC(=O)[C@H](CCCCN)NC(=O)[C@H](CCC(=O)O)NC(=O)[C@H](CO)NC(=O)[C@@H](NC(=O)[C@@H](N)Cc1ccccc1)C(C)C)C(=O)N[C@@H](Cc1ccccc1)C(=O)N[C@@H](Cc1ccc(O)cc1)C(=O)N(C)[C@H](C(=O)O)C(C)C [SSX2 41-49 (K41F, A42V, V49MeVal)] | 10 | –
18 | CCCC[C@H](NC(=O)[C@H](Cc1ccc(O)cc1)NC(=O)[C@H](Cc1ccccc1)NC(=O)[C@@H](NC(=O)[C@H](CCCCN)NC(=O)[C@H](CCC(=O)O)NC(=O)[C@H](CO)NC(=O)[C@@H](NC(=O)[C@@H](N)Cc1ccccc1)C(C)C)[C@@H](C)CC)C(=O)O [SSX2 41-49 (K41F, A42V, V49Nle)] | >10 | –

Row | Compound | Cross-reactivity and fct avidity (native to analogs)* | cross-reactivity / IFN-gamma inducing activity relative to wild-type, in words (SSX-2 41-49 analogs, wild-type specific T cells)
19 | CCC[C@H](NC(=O)[C@H](Cc1ccc(O)cc1)NC(=O)[C@H](Cc1ccccc1)NC(=O)[C@@H](NC(=O)[C@H](CCCCN)NC(=O)[C@H](CCC(=O)O)NC(=O)[C@H](CO)NC(=O)[C@@H](NC(=O)[C@@H](N)Cc1ccccc1)C(C)C)[C@@H](C)CC)C(=O)O [SSX2 41-49 (K41F, A42V, V49Nva)] | 0.1 | –
20 | CC[C@H](C)[C@H](NC(=O)[C@H](CCCCN)NC(=O)[C@H](CCC(=O)O)NC(=O)[C@H](CO)NC(=O)[C@H](C)NC(=O)[C@@H](N)Cc1c[nH]c2ccccc12)C(=O)N[C@@H](Cc1ccccc1)C(=O)N[C@@H](Cc1ccc(O)cc1)C(=O)N[C@H](C(=O)O)C(C)C [SSX2 41-49 (K41W)] | >10 | –
21 | CC[C@H](C)[C@H](NC(=O)[C@H](CCCCN)NC(=O)[C@H](CCC(=O)O)NC(=O)[C@H](CO)NC(=O)[C@@H](NC(=O)[C@@H](N)Cc1c[nH]c2ccccc12)[C@@H](C)CC)C(=O)N[C@@H](Cc1ccccc1)C(=O)N[C@@H](Cc1ccc(O)cc1)C(=O)N[C@H](C(=O)O)C(C)C [SSX2 41-49 (K41W, A42I)] | 0.1 | –
22 | CC[C@H](C)[C@H](NC(=O)[C@H](CCCCN)NC(=O)[C@H](CCC(=O)O)NC(=O)[C@H](CO)NC(=O)[C@@H](NC(=O)[C@@H](N)Cc1ccc(O)cc1)[C@@H](C)CC)C(=O)N[C@@H](Cc1ccccc1)C(=O)N[C@@H](Cc1ccc(O)cc1)C(=O)N[C@H](C(=O)O)C(C)C [SSX2 41-49 (K41Y, A42I)] | 1 | –
23 | CC[C@H](C)[C@H](NC(=O)[C@H](CCCCN)NC(=O)[C@H](CCC(=O)O)NC(=O)[C@H](CO)NC(=O)[C@H](C)NC(=O)[C@@H](N)CCCCN)C(=O)N[C@@H](Cc1ccccc1)C(=O)N[C@@H](Cc1ccc(O)cc1)C(=O)N[C@H](C(=O)O)C(C)C [SSX2 41-49, reference compound] | 1 | –
24 | FVSEKIFY(Aib) [SSX2 41-49 (K41F, A42V, V49Aib)] | >10 | –
25 | FVSEKLFTA | >10 | –
26 | FVSEKMFYV [SSX2 41-49 (K41F, A42V, I46M)] | >10 | –
27 | FVSEKVFYV (T cell peptide epitope analog) [SSX2 41-49 (K41F, A42V, I46V)] | 1 | –
28 | FVSNKIFYV [SSX2 41-49 (K41F, A42V, E44N)] | >10 | –
29 | K(D-Ala)SEKIFYV [SSX2 41-49 (A42(D-Ala))] | 10 | –
30 | K(D-Val)SEKIFYV [SSX2 41-49 (A42(D-Val))] | 3 | –
31 | KASEKIFYV [SSX2 41-49-NH2] | >10 | –
32 | KASEKIFYVY [SSX-241-50, wild-type SSX-2 41-50 decamer peptide, reference compound] | – | significantly less active; also recorded: no immunological activity
33 | KLSEKIFYV [SSX2 41-49-NH2 (A42L)] | 3 | –
34 | KNal-1SEKIFYV [SSX2 41-49 (A42(Nal-1))] | >10 | –
35 | KVSEKIFYI [SSX2 41-49 (A42V, V491)] | 0.3 | –
36 | KVSEKIFYV [SSX2 41-49-NH2 (A42V)] | 10 | –
